Values quoted from earlier work, collected in patent US20120245028A1, “Methods for Use of Tetraalkyl Ammonium Halide Compositions as Post-emergence Higher Plant Herbicides” (priority 2011, published 2012).

Legend:
[1] = system: small apple tree seedlings; conditions: following fungus inoculation and a treatment with 5% solution
[2] = system: infected field apple trees; conditions: infected field apple trees treated with 5% solution

Structure (SMILES): CCCCCCCCCC[N+](C)(C)CCCCCCCCCC.[Br-] [DDAB, didecyl dimethyl ammonium bromide]
- phytotoxicity [1]: severe phytotoxicity
- damage caused by the treatments [2]: no obvious damage
- effect upon the total number of growing buds [2]: no effect
